Measurements: the NIST ThermoML archive (doi:10.1021/je060271a)

Details: 343.14 K, Liquid, Vibrating tube method

CCCCCCC(=O)OCC(COC(=O)CCCCCC)(COC(=O)CCCCCC)COC(=O)CCCCCC [pentaerythritol tetraheptanoate]
Details | mass density [kg/m3]
18157 kPa | 953.7
18178 kPa | 953.7
18297 kPa | 953.7
18319 kPa | 953.8
18346 kPa | 953.8
18368 kPa | 953.7
18394 kPa | 953.9
18417 kPa | 953.8
18440 kPa | 953.8
18467 kPa | 954
18490 kPa | 953.8
18513 kPa | 953.9
18736 kPa | 954
18759 kPa | 954.1
18788 kPa | 954.2
18811 kPa | 954.1
18834 kPa | 954.2
18863 kPa | 954.2
18886 kPa | 954.2
18911 kPa | 954.2
18939 kPa | 954.2
18963 kPa | 954.3
18988 kPa | 954.2
19016 kPa | 954.2
19305 kPa | 954.6
19330 kPa | 954.5
19356 kPa | 954.5
19386 kPa | 954.6
19411 kPa | 954.6
19743 kPa | 954.6
19769 kPa | 954.7
19796 kPa | 954.8
19828 kPa | 954.7
19854 kPa | 954.8
19881 kPa | 954.8
19913 kPa | 954.8
19941 kPa | 954.8
19968 kPa | 954.8
19994 kPa | 954.9
20028 kPa | 954.9
20054 kPa | 955
20087 kPa | 954.9
20115 kPa | 955
20142 kPa | 955
20169 kPa | 955.2
20203 kPa | 955.1
20230 kPa | 955.1
20258 kPa | 955.1
20441 kPa | 955.3
20475 kPa | 955.2
20533 kPa | 955.4
20567 kPa | 955.3
20596 kPa | 955.3
20625 kPa | 955.3
20660 kPa | 955.3
20722 kPa | 955.3
20752 kPa | 955.5
20817 kPa | 955.5
20847 kPa | 955.4
20877 kPa | 955.4
20907 kPa | 955.5
20942 kPa | 955.6
20972 kPa | 955.5
21003 kPa | 955.6
21039 kPa | 955.6
21133 kPa | 955.6
21170 kPa | 955.7
21200 kPa | 955.8
21230 kPa | 955.8
21267 kPa | 955.7
21298 kPa | 955.9
21330 kPa | 955.8
21368 kPa | 955.8
21399 kPa | 955.8
21431 kPa | 955.9
21462 kPa | 955.8
21500 kPa | 956
21533 kPa | 955.8
21565 kPa | 956
21597 kPa | 956
21636 kPa | 955.9
21669 kPa | 956
21702 kPa | 956
21740 kPa | 956
21773 kPa | 956
21806 kPa | 956.1
21839 kPa | 956.1
21878 kPa | 956.2
21912 kPa | 956.2
21946 kPa | 956.2
21986 kPa | 956.1
22020 kPa | 956.3
22053 kPa | 956.2
22086 kPa | 956.1
22236 kPa | 956.4
22270 kPa | 956.5
22311 kPa | 956.5
22345 kPa | 956.4
22380 kPa | 956.5
22421 kPa | 956.5
22456 kPa | 956.5
22491 kPa | 956.6
22526 kPa | 956.5
22569 kPa | 956.6
22604 kPa | 956.6
22640 kPa | 956.7
22675 kPa | 956.7
22776 kPa | 956.7
22834 kPa | 956.7
22870 kPa | 956.8
22914 kPa | 956.8
22950 kPa | 956.8
